Entries after “also recorded” stand apart in the source; their conditions may differ.
What was measured:
[1] = system: lymphocytes, lymphocyte subtypes and CD34+ HSCs in whole blood; details: ISO dose of 50 ng/kg/min, healthy subjects, literature; cited from earlier work
[2] = system: lymphocytes, lymphocyte subtypes and CD34+ HSCs in whole blood; test: Lymphocyte subtypes and CD34+ HSCs in whole blood at rest and during ISO infusion before and after G-CSF treatment; assay type: in vivo, human; details: for Absolute number of B cells in whole blood / Absolute number of CD3+ T cells in whole blood / Absolute number of CD4+ T cells in whole blood / Absolute number of CD8+ T cells in whole blood / Absolute number of CD34+ HSCs in whole blood / Absolute number of CM CD4+ T cells in whole blood / Absolute number of CM CD8+ T cells in whole blood / Absolute number of EM CD4+ T cells in whole blood / Absolute number of EM CD8+ T cells in whole blood / Absolute number of EMRA CD4+ T cells in whole blood / Absolute number of EMRA CD8+ T cells in whole blood / Absolute number of NK cells in whole blood / Absolute number of Naïve CD4+ T cells in whole blood / Absolute number of Naïve CD8+ T cells in whole blood / Absolute number of lymphocytes (Lymph.) in whole blood / Absolute number of αβ T cells in whole blood / Absolute number of γδ T cells in whole blood: mean, n = 3
[3] = Heart rate, blood pressure and tolerance during ISO infusion; assay type: in vivo, human; details: ISO 50 ng/kg/min, before and after 5-days G-CSF (5 mcg/kg/day); n=3
Excerpt: Research Design: Scientific Rigor is maintained through the use of a randomized, complete cross-over, double blind placebo controlled experimental design (above table). This design allows participants to act as their own controls, thus minimizing variability and the impact of potential between-subject confounders. Healthy volunteers report to the lab on six separate occasions at the same time of day. During Visit 1, they undergo an extensive screening procedure to ensure that they meet the study inclusion/exclusion criteria. A blood sample is drawn to determine CMV serostatus (positive or negative) and MR haplotype (A or B), which is included as co-variates in the analysis. Participants then complete six trials on separate days (Visit 2-7) with 7-days interspersed between each trial. During each of these visits, subjects are infused with 50 ng/kg/min of ISO (5 visits) or saline (1 visit) for 30-minutes. Blood samples are drawn before and during the last 10-minutes of the 30-minute infusion protocol. Participants are given orally administered drugs or placebo as a single dose within a few hours prior to ISO infusion. Participants are assigned to trial order using a block randomization scheme with random block sizes of between 2 and 4 subjects to obtain a balanced sample of 8 subjects per trial sequence order (see Statistical Power and Analysis section below). The randomization list is used to create sealed envelopes that are opened to determine assignment to drug order group after visit 1, with the trial order blinded to both the investigators and the participants.

[4] = ISO dose of 50 ng/kg/min, literature; cited from earlier work
[5] = system: lymphocytes, lymphocyte subtypes and CD34+ HSCs in whole blood; test: Lymphocyte subtypes and CD34+ HSCs in whole blood at rest and during ISO infusion before and after G-CSF treatment; assay type: in vivo, human
Excerpt: Values are the mean (n=7; 3 females).
This graft phenotype is predictive of improved clinical outcomes post alloHSCT, including lower incidence/severity of GvHD and viral infections, better engraftment and a lower incidence of relapse (Table 1).

[6] = system: leukemia and multiple myeloma target cells; test: In vitro anti-tumor (cytotoxic) activity of mobilized PBHC grafts; assay type: cell-based, human; details: compared to rest / G-CSF only
Excerpt: Moreover, cytotoxic activity against leukemia and multiple myeloma target cells in vitro was 2-fold greater in the G-CSF+ISO PBHC grafts compared to G-CSF alone. […] Accordingly, in some embodiments, provided herein are compositions and methods for mobilizing stem cells with enhanced properties for use in allogenic or autologous transfers.
(§1) This was largely explained by a shift in the composition of NK-cells and TCR-γδ cells. […] The effects of systemic β-AR activation on the mobilization and ex vivo expansion of VSTs and TCR-γδ cells were β2-AR mediated as the effects were diminished by administering nadolol but not bisoprolol prior to systemic β-AR activation (FIG. 6).

[7] = system: VSTs specific to CMV, EBV and adenovirus antigens; test: Mobilization of viral-specific T-cells (IFN-γ ELISpot and IFN-γ capture assays) with systemic β-AR activation; assay type: in vivo, human; details: healthy humans (n=11)
Excerpt: Difference from the resting condition indicated by *, p<0.05. Difference from the placebo and bisoprolol trials indicated by #, p<0.05.

[8] = oral, literature; cited from earlier work
[9] = system: lymphocyte composition in blood; test: β-AR antagonists / PDE-4 inhibitor given prior to systemic β-AR activation (dynamic exercise): lymphocyte composition and heart rate; assay type: in vivo, human; details: antagonist administered prior to systemic β-AR activation (dynamic exercise model)
Experimental: Baseline samples were collected before drug/placebo administration and again 3 h later (pre-exercise).
To determine the β-AR subtype involved, a selective β1-AR antagonist (bisoprolol) and non-selective β1+β2-AR antagonist (nadolol) were administered prior to systemic β-AR activation (using dynamic exercise as an experimental model).

VSTs and TCR-γδ cells = test: Mobilization and ex vivo expansion of VSTs and TCR-γδ cells after systemic β-AR activation; assay type: cell-based, human; details: antagonist administered prior to systemic β-AR activation
Excerpt: as §1

[10] = ISO infusion 50 ng/kg/min, before and after 5-days G-CSF (5 mcg/kg/day), n=7
[11] = Post G-CSF, during ISO infusion
[12] = after G-CSF mobilization, healthy volunteers

Molecule: CC(C)NCC(O)c1ccc(O)c(O)c1 (centres unmarked) [ISO, isoproterenol]
- mobilization of lymphocytes to the circulation [1]: robust mobilization
- composition of NK-cells and TCR-γδ cells among total blood lymphocytes [2, 10]: markedly increases
- Absolute number of B cells in whole blood [2, 11]: 392 cells/ul
- Absolute number of CD3+ T cells in whole blood [2, 11]: 2933 cells/ul
- Absolute number of CD4+ T cells in whole blood [2, 11]: 1835 cells/ul
- Absolute number of CD8+ T cells in whole blood [2, 11]: 795 cells/ul
- Absolute number of CD34+ HSCs in whole blood [2, 11]: 92 cells/ul
- Absolute number of CM CD4+ T cells in whole blood [2, 11]: 298 cells/ul
- Absolute number of CM CD8+ T cells in whole blood [2, 11]: 41 cells/ul
- Absolute number of EM CD4+ T cells in whole blood [2, 11]: 429 cells/ul
- Absolute number of EM CD8+ T cells in whole blood [2, 11]: 342 cells/ul
- Absolute number of EMRA CD4+ T cells in whole blood [2, 11]: 220 cells/ul
- Absolute number of EMRA CD8+ T cells in whole blood [2, 11]: 184 cells/ul
- Absolute number of NK cells in whole blood [2, 11]: 2068 cells/ul
- Absolute number of Naïve CD4+ T cells in whole blood [2, 11]: 886 cells/ul
- Absolute number of Naïve CD8+ T cells in whole blood [2, 11]: 227 cells/ul
- Absolute number of lymphocytes (Lymph.) in whole blood [2, 11]: 6730 cells/ul
- Absolute number of αβ T cells in whole blood [2, 11]: 2253 cells/ul
- Absolute number of γδ T cells in whole blood [2, 11]: 214 cells/ul
- Absolute number of B cells in whole blood ([2]; Pre G-CSF, during ISO infusion): 100 cells/ul
- Absolute number of CD3+ T cells in whole blood ([2]; Pre G-CSF, during ISO infusion): 924 cells/ul
- Absolute number of CD4+ T cells in whole blood ([2]; Pre G-CSF, during ISO infusion): 489 cells/ul
- Absolute number of CD8+ T cells in whole blood ([2]; Pre G-CSF, during ISO infusion): 329 cells/ul
- Absolute number of CD34+ HSCs in whole blood ([2]; Pre G-CSF, during ISO infusion): 6 cells/ul
- Absolute number of CM CD4+ T cells in whole blood ([2]; Pre G-CSF, during ISO infusion): 137 cells/ul
- Absolute number of CM CD8+ T cells in whole blood ([2]; Pre G-CSF, during ISO infusion): 34 cells/ul
- Absolute number of EM CD4+ T cells in whole blood ([2]; Pre G-CSF, during ISO infusion): 80 cells/ul
- Absolute number of EM CD8+ T cells in whole blood ([2]; Pre G-CSF, during ISO infusion): 114 cells/ul
- Absolute number of EMRA CD4+ T cells in whole blood ([2]; Pre G-CSF, during ISO infusion): 13 cells/ul
- Absolute number of EMRA CD8+ T cells in whole blood ([2]; Pre G-CSF, during ISO infusion): 81 cells/ul
- Absolute number of NK cells in whole blood ([2]; Pre G-CSF, during ISO infusion): 778 cells/ul
- Absolute number of Naïve CD4+ T cells in whole blood ([2]; Pre G-CSF, during ISO infusion): 257 cells/ul
- Absolute number of Naïve CD8+ T cells in whole blood ([2]; Pre G-CSF, during ISO infusion): 99 cells/ul
- Absolute number of lymphocytes (Lymph.) in whole blood ([2]; Pre G-CSF, during ISO infusion): 2043 cells/ul
- Absolute number of αβ T cells in whole blood ([2]; Pre G-CSF, during ISO infusion): 830 cells/ul
- Absolute number of γδ T cells in whole blood ([2]; Pre G-CSF, during ISO infusion): 91 cells/ul
- ratio of 'favorable' to 'unfavorable' lymphocyte subtypes in peripheral blood [2, 12]: alters
- systolic hypertension [3]: ~30 mmHg
- tachycardia [3]: ~50 bpm
- tolerance to ISO infusion [3]: excellent tolerance
- safety for infusing healthy subjects [4]: safe
- composition of CD4+ TCR-αβ cells and B-cells among total blood lymphocytes [5, 10]: lowers
- numbers of CD34 HSCs in peripheral blood / graft [5, 12]: increases; also recorded: without compromising
- in vitro anti-tumor activity of G-CSF mobilized PBHC grafts [6]: increases

Molecule: CC(C)NCC(O)COc1ccc(COCCOC(C)C)cc1 (centres unmarked) [bisoprolol]
- effects of systemic β-AR activation on the mobilization of VSTs [7]: not
- half-life [8]: 10 to 12 h
- effects of systemic β-AR activation on graft composition shifts [9]: remained favorably altered

Molecule: COc1ccccc1OCCNCC(O)COc1cccc2[nH]c3ccccc3c12 (centres unmarked) [carvedilol]
- half-life [8]: 7 to 10 h

Molecule: CC(C)(C)NCC(O)COc1cccc2c1CC(O)C(O)C2 (centres unmarked) [nadolol]
- effects of systemic β-AR activation on the mobilization of VSTs [7]: inhibits; also recorded: blocked
- half-life [8]: 14 to 24 h
- effects of systemic β-AR activation on the mobilization and ex vivo expansion of VSTs and TCR-γδ cells (VSTs and TCR-γδ cells): diminished
- effects of systemic β-AR activation on graft composition shifts [9]: not
- effects of systemic β-AR activation on graft composition shifts ([9]; listed as Nadolol): abrogated

Molecule: O=C(Nc1c(Cl)cncc1Cl)c1ccc(OC(F)F)c(OCC2CC2)c1 [roflumilast]
- half-life [8]: 15 to 18 h

B1: G-CSF: stem cell mobilization agent; filgrastim (G-CSF), 5 mcg/kg/day for 5 days (protein, chains of the INN, looked up)
chain: MTPLGPASSLPQSFLLKCLEQVRKIQGDGAALQEKLCATYKLCHPEELVLLGHSLGIPWAPLSSCPSQALQLAGCLSQLHSGLFLYQGLLQALEGISPELGPTLDTLQLDVADFATTIWQQMEELGMAPALQPTQGAMPAFASAFQRRAGGVLVASHLQSFLEVSYRVLRHLAQP
- Absolute number of B cells in whole blood ([2]; Post G-CSF, Rest): 456 cells/ul
- Absolute number of CD3+ T cells in whole blood ([2]; Post G-CSF, Rest): 2755 cells/ul
- Absolute number of CD4+ T cells in whole blood ([2]; Post G-CSF, Rest): 1749 cells/ul
- Absolute number of CD8+ T cells in whole blood ([2]; Post G-CSF, Rest): 786 cells/ul
- Absolute number of CD34+ HSCs in whole blood ([2]; Post G-CSF, Rest): 110 cells/ul
- Absolute number of CM CD4+ T cells in whole blood ([2]; Post G-CSF, Rest): 268 cells/ul
- Absolute number of CM CD8+ T cells in whole blood ([2]; Post G-CSF, Rest): 47 cells/ul
- Absolute number of EM CD4+ T cells in whole blood ([2]; Post G-CSF, Rest): 405 cells/ul
- Absolute number of EM CD8+ T cells in whole blood ([2]; Post G-CSF, Rest): 284 cells/ul
- Absolute number of EMRA CD4+ T cells in whole blood ([2]; Post G-CSF, Rest): 216 cells/ul
- Absolute number of EMRA CD8+ T cells in whole blood ([2]; Post G-CSF, Rest): 154 cells/ul
- Absolute number of NK cells in whole blood ([2]; Post G-CSF, Rest): 1158 cells/ul
- Absolute number of Naïve CD4+ T cells in whole blood ([2]; Post G-CSF, Rest): 860 cells/ul
- Absolute number of Naïve CD8+ T cells in whole blood ([2]; Post G-CSF, Rest): 302 cells/ul
- Absolute number of lymphocytes (Lymph.) in whole blood ([2]; Post G-CSF, Rest): 5866 cells/ul
- Absolute number of αβ T cells in whole blood ([2]; Post G-CSF, Rest): 2661 cells/ul
- Absolute number of γδ T cells in whole blood ([2]; Post G-CSF, Rest): 93 cells/ul

— US20220127576A1, “COMPOSITIONS AND METHODS FOR STEM CELL THERAPY” (Arizona Board of Regents on Behalf of the University of …, priority 2019, published 2022)
